Laboratory results taken from patent publication US20090252680A1, “NOVEL COMPOUND WITH AFFINITY FOR AMYLOID” (NIHON- MEDI-PHYSICS CO., LTD, priority 2006, published 2009).
Like-named read-outs stand apart in the source and are kept apart here.

What was measured:
intracerebral amyloid [1] = biological target: T1, intracerebral amyloid (Homo sapiens, UniProt P05067); test: Confirmation of imaging of amyloid in brain (autoradiogram of brain slice, amyloid injected into amygdaloid nucleus); assay type: in vivo, male Wistar rat; details: 60 minutes after intravenous injection
T1 construct: Aβ1-42 (manufactured by Wako); purchased Wako
T1 sequence (P05067 672-713): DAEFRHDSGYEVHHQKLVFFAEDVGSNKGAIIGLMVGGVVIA
Procedure: (§1) (1) Aβ1-42 (manufactured by Wako) was dissolved in phosphate buffer (pH 7.4) and shaken at 37° C. for 72 hours, to obtain a 1 mg/mL suspension of aggregated Aβ (hereinafter referred to as amyloid suspension in this Example).
(§2) (2) 2.5 μL (corresponding to 25 μg) of the amyloid suspension was injected under thiopental anesthesia into an amygdaloid nucleus on one side of a male Wistar rat (7-week old). As a control, 2.5 μL of a phosphate buffered physiological saline solution (pH 7.4) was injected into an amygdaloid nucleus on the other side of the rat. The rats were examined 1 day after the injection of the amyloid suspension and the phosphate buffered physiological saline solution (pH 7.4).
(§3) This sample solution was injected under thiopental anesthesia into the rat through the tail vein (dosage: 0.5 mL, dosed radioactivity: 16 MBq equivalent).
(§4) (4) Brain was removed 60 minutes after the injection to prepare a brain slice of 10 μm in thickness with a microtome (type: CM3050S, manufactured by LEICA). The brain slice was exposed to an imaging plate for 20 hours, and then image analysis was carried out by use of a Bio-imaging Analyzer (type: BAS-2500; manufactured by FUJIFILM Corporation).
(§5) (5) After the completion of the image analysis using the Bio-imaging Analyzer, pathological staining with Thioflavin T was carried out to perform imaging by use of a fluorescence microscope (manufactured by NIKON Corporation; type: TE2000-U model; excitation wavelength: 400-440 nm; detection wavelength: 470 nm).

intracerebral amyloid [2] = test: as above; assay type: in vivo, male Wistar rat; details: 60 minutes after intravenous injection, control side
Procedure: as §1, §2, §3, §4, §5

[3] = Measurement of transferability into brain and clearance; details: rats, intravenous injection (tail vein); for Radioactive accumulation per unit weight of brain, after 2 min.: 2 min after injection; for Radioactive accumulation per unit weight of brain, after 5 min.: 5 min after injection; for Radioactive accumulation per unit weight of brain, after 30 min.: 30 min after injection; for Radioactive accumulation per unit weight of brain, after 60 min.: 60 min after injection
Procedure: The rats were sacrificed by bleeding from abdominal artery, and brains were removed and subjected to measurement of mass of brains and further subjected to measurement of radioactivity (hereinafter referred to as A in this Example) with a single channel analyzer (detector type: SP-20 manufactured by OHYO KOKEN KOGYO Co., Ltd.) 2, 5, 30 and 60 minutes after the injection. Also, radioactivity (hereinafter referred to as B in this Example) of the remain of the whole body was measured in the same manner as above.
The same procedures as above were performed to calculate radioactive accumulation per unit weight of brain (% ID/g) at the respective time points (Comparative Example 2).
Three animals were used for Example 15, Example 16 and Reference Example 2 at the respective time points.

[4] = Measurement of partition coefficient based on the octanol extraction method; details: octanol / 10 mmol/L phosphate buffer (pH 7.4)
Procedure: To 2 mL of octanol, 10 μL each of the prepared sample solutions was respectively added, and 2 mL of a 10 mmol/L phosphate buffer (pH 7.4) was further added, followed by stirring for 30 seconds. After the mixture was centrifuged with a low-speed centrifuge (2000 rpm×60 min.), the octanol layer and the water layer were sampled each in an amount of 1 mL, and subjected to measurement of radioactivity count with an autowell gamma system (Type: ARC-301B, manufactured by Aloka). Using the obtained radioactivity count, logPoctanol was calculated in accordance with the equation (2).

[5] = [125I]-labeled, normal mice; cited from earlier work
[6] = biological target: amyloid (aggregated Aβ1-42) (Homo sapiens, UniProt P05067)
amyloid (aggregated Aβ1-42), sequence (P05067 672-713): as above
Source text: Affinity of the present compounds with amyloid was examined by the following in vitro binding tests.

[7] = [11C]-labeled, rats; cited from earlier work
amyloid = details: [125I]-labeled compounds; cited from earlier work

Compound: COc1ccc(-c2cn3cc([123I])ccc3n2)cc1
- Accumulation of radioactivity in the amygdaloid nucleus on the side injected with amyloid suspension (intracerebral amyloid [1]): marked accumulation of radioactivity
- Accumulation of radioactivity in the amygdaloid nucleus on the side injected with physiological saline solution (intracerebral amyloid [2]): no significant accumulation of radioactivity
- Radioactive accumulation per unit weight of brain, after 2 min. [3]: 1.04 % ID/g
- Radioactive accumulation per unit weight of brain, after 5 min. [3]: 0.72 % ID/g
- Radioactive accumulation per unit weight of brain, after 30 min. [3]: 0.12 % ID/g
- Radioactive accumulation per unit weight of brain, after 60 min. [3]: 0.04 % ID/g
- logPoctanol value [4]: 1.7

Compound: CN(C)c1ccc(/C=C/c2ccc(I)cc2)cc1 [m-I-SB, (E)-4-dimethylamino-4′-iodostilbene]
- Clearance from normal tissues [5]: insufficient in clearance from normal tissues
- Transfer into brain [5]: transferred into brain 2 minutes after administration

Compound: COc1ccc2nc(-c3ccc([125I])cc3)cn2c1 [[^125I]-2-(4′-iodophenyl)-6-methoxyimidazo[1,2-a]pyridine]
- Binding to amyloid [6]: capable of binding to amyloid
- Radioactive count (A−B) specifically binding to amyloid versus amyloid concentration ([6]; amyloid 25, 62.5, 250, 625 and 1000 nmol/L, 22° C., 3 hours): showed a tendency to increase with increment of the concentration of amyloid

Compound: CN(C)c1ccc(-c2nc3ccc(I)cc3s2)cc1 [TZDM, 6-iodo-2-[4′-(N,N-dimethylamino)phenyl]benzothiazole]
- Clearance from normal tissues [5]: insufficient in clearance from normal tissues
- Transfer into brain [5]: transferred into brain 2 minutes after administration

Compound: CN(C)c1ccc(-c2nc3ccc(I)cc3o2)cc1 [IBOX, 6-iodo-2-[4′-(N,N-dimethylamino)phenyl]benzoxazole]
- Clearance from normal tissues [5]: insufficient in clearance from normal tissues
- Transfer into brain [5]: transferred into brain 2 minutes after administration

Compound: Fc1ccc(-c2cn3cc([123I])ccc3n2)cc1
- Accumulation of radioactivity in the amygdaloid nucleus on the side injected with amyloid suspension (intracerebral amyloid [1]): marked accumulation of radioactivity
- Accumulation of radioactivity in the amygdaloid nucleus on the side injected with physiological saline solution (intracerebral amyloid [2]): no significant accumulation of radioactivity
- Radioactive accumulation per unit weight of brain, after 2 min. [3]: 1.00 % ID/g
- Radioactive accumulation per unit weight of brain, after 5 min. [3]: 0.72 % ID/g
- Radioactive accumulation per unit weight of brain, after 30 min. [3]: 0.12 % ID/g
- Radioactive accumulation per unit weight of brain, after 60 min. [3]: 0.05 % ID/g
- logPoctanol value [4]: 2.3

Compound: COc1ccc2nc(-c3ccc([123I])cc3)cn2c1
- Accumulation of radioactivity in the amygdaloid nucleus on the side injected with amyloid suspension (intracerebral amyloid [1]): marked accumulation of radioactivity
- Accumulation of radioactivity in the amygdaloid nucleus on the side injected with physiological saline solution (intracerebral amyloid [2]): no significant accumulation of radioactivity
- Radioactive accumulation per unit weight of brain, after 2 min. [3]: 1.26 % ID/g
- Radioactive accumulation per unit weight of brain, after 5 min. [3]: 0.89 % ID/g
- Radioactive accumulation per unit weight of brain, after 30 min. [3]: 0.19 % ID/g
- Radioactive accumulation per unit weight of brain, after 60 min. [3]: 0.09 % ID/g
- logPoctanol value [4]: 2.3

Compound: CNc1ccc(/C=C/c2ccc(O)cc2)cc1 [SB-13, (E)-4-methylamino-4′-hydroxystilbene]
- Clearance from normal tissues [7]: it cannot be said that the clearance is sufficiently fast

Compound: CN(C)c1ccc(-c2cn3cc([123I])ccc3n2)cc1 [[^123I]-IMPY, reference compound]
- Radioactive accumulation per unit weight of brain, after 2 min. [3]: 1.19 % ID/g
- Radioactive accumulation per unit weight of brain, after 5 min. [3]: 0.97 % ID/g
- Radioactive accumulation per unit weight of brain, after 30 min. [3]: 0.23 % ID/g
- Radioactive accumulation per unit weight of brain, after 60 min. [3]: 0.09 % ID/g
- logPoctanol value [4]: 1.9

Compound: CN(C)c1ccc(-c2cn3cc(I)ccc3n2)cc1 [IMPY, 6-iodo-2-[4′-(N,N-dimethylamino)phenyl]imidazo[1,2-a]pyridine]
- Clearance from normal tissues (amyloid): rapid clearance from normal tissues
- Transfer to brain and accumulation at amyloid (amyloid): transferring to brain and accumulating at amyloid after administration
